{
  "source": "ChEMBL document CHEMBL1833933",
  "about": "“Relationship between the structures of flavonoids and their NF-κB-dependent transcriptional activities” (Bioorg Med Chem Lett, 2011)",
  "note": "Activity calls are given as the source filed them. No cut-off for these calls is given here.",
  "data": [
    {"tested_on": "HCT-116", "experiment": "Inhibition of NF-kappaB activation expressed in HCT116 cells assessed as inhibition of TNF-alpha-induced transcriptional activation at 10 uM after 12 hrs by luciferase reporter gene assay relative to control", "format": "cell-based", "details": "values are per cent of control", "units": {"residual activity": "%"}, "values": [
      {"smiles": "COc1ccc2c(=O)c(-c3ccccc3)coc2c1", "residual activity": 132},
      {"smiles": "COc1cccc(-c2cc(=O)c3ccccc3o2)c1OC", "residual activity": 100},
      {"smiles": "O=c1cc(-c2ccccc2)oc2cccc(O)c12", "residual activity": 116},
      {"smiles": "COc1cc(-c2cc(=O)c3ccccc3o2)ccc1O", "residual activity": 105},
      {"smiles": "COc1ccc2c(c1)OC(c1cc(OC)c(OC)c(OC)c1)CC2=O", "note": "(stereo not drawn)", "residual activity": 99.8},
      {"smiles": "COc1cc(O)c2c(=O)c(-c3ccc(O)cc3)coc2c1", "residual activity": 105},
      {"smiles": "COc1cc(OC)c2c(c1)OC(c1ccccc1)CC2=O", "note": "(stereo not drawn)", "residual activity": 126},
      {"smiles": "O=c1cc(-c2cccc(O)c2O)oc2ccccc12", "residual activity": 109},
      {"smiles": "O=c1cc(-c2ccccc2)oc2ccc3ccccc3c12", "residual activity": 150},
      {"smiles": "O=c1cc(-c2ccccc2)oc2c1ccc1ccccc12", "residual activity": 91.4},
      {"smiles": "Cc1c(-c2ccccc2)oc2c(C(=O)O)cccc2c1=O", "residual activity": 143},
      {"smiles": "COc1ccccc1-c1cc(=O)c2ccc3ccccc3c2o1", "residual activity": 65.1},
      {"smiles": "O=C1C[C@@H](c2ccc(O)cc2)Oc2cc(O)cc(O)c21", "residual activity": 135},
      {"smiles": "O=c1cc(-c2cccc(O)c2)oc2cccc(O)c12", "residual activity": 126},
      {"smiles": "O=c1cc(-c2ccccc2)oc2ccccc12", "residual activity": 113},
      {"smiles": "COc1cccc2oc(-c3ccccc3)cc(=O)c12", "residual activity": 63.9},
      {"smiles": "COc1cc(OC)c2c(=O)cc(-c3ccc(OC)c(OC)c3)oc2c1", "residual activity": 124},
      {"smiles": "COc1ccc(/C=C/C(=O)c2ccc(OC)cc2O)cc1", "residual activity": 83.1},
      {"smiles": "COc1ccc(-c2coc3cc(OC)cc(OC)c3c2=O)cc1", "residual activity": 123},
      {"smiles": "COc1cccc2c1C(=O)CC(c1ccccc1)O2", "note": "(stereo not drawn)", "residual activity": 108},
      {"smiles": "COc1cccc2oc(-c3ccc(O)cc3)cc(=O)c12", "residual activity": 87.7},
      {"smiles": "COc1cccc(/C=C/C(=O)c2cc(OC)cc(OC)c2)c1", "residual activity": 77.4},
      {"smiles": "COc1cc(/C=C/C(=O)c2ccccc2OC)cc(OC)c1", "residual activity": 61.1},
      {"smiles": "COc1cc(-c2oc3cc(O)cc(O)c3c(=O)c2O[C@@H]2O[C@H](CO)[C@@H](O)[C@H](O)[C@H]2O)ccc1O", "residual activity": 115},
      {"smiles": "O=c1c(O)c(-c2ccc(O)c(O)c2)oc2c(O[C@@H]3O[C@H](CO)[C@@H](O)[C@H](O)[C@H]3O)c(O)cc(O)c12", "residual activity": 99.1},
      {"smiles": "COc1ccc(-c2cc(=O)c3c(OC)cc(OC)cc3o2)cc1", "residual activity": 89.9}
    ]},
    {"tested_on": "HCT-116", "experiment": "Inhibition of TNF-alpha-induced NF-kappaB activation expressed in HCT116 cells assessed as reduction of IkappaB phosphorylation at Ser32 at 20 uM treated 30 mins before TNFalpha challenge by Western blot analysis", "format": "cell-based", "details": "not given", "values": [
      {"smiles": "COc1cc(/C=C/C(=O)c2cc(OC)cc(OC)c2)cc(OC)c1", "inhibition": "Active"}
    ]},
    {"tested_on": "HCT-116", "experiment": "Inhibition of TNF-alpha-induced NF-kappaB activation expressed in HCT116 cells assessed as reduction of RelA phosphorylation at Ser536 at 20 uM treated 30 mins before TNFalpha challenge by immunofluorescence microscopic analysis", "format": "cell-based", "details": "not given", "values": [
      {"smiles": "COc1cc(/C=C/C(=O)c2cc(OC)cc(OC)c2)cc(OC)c1", "inhibition": "Active"}
    ]}
  ]
}
